Source: patent US10111902B2, “Polymers for reversing heparin-based anticoagulation” (University of British Columbia, priority 2011, dated 2018)

Columns and labels:
[1] = test system: ctDNA; test: Binding affinity of polymers for ctDNA; conditions: buffered water (pH 7.2), 50 mM NaCl, 25° C
[2] = test system: blood; test: Blood compatibility at 1 mg/ml; conditions: footnote [3] to protamine: showed complement activation, platelet activation, behaved like an anticoagulant, massive hemolysis

**Q.** NCCCNCCCCNCCCN [Tetramine (spermine), spermine] was tested. Which “C50 (nM) [1]” value [1] did it give?
**A.** 2788 nM

**Q.** What about the “Blood compatibility at 1 mg/ml” value [2] of the same compound?
**A.** poor
